Data set [1] in a line: Absorbent body migration rate of sanitary napkin. Conditions: horse EDTA blood, after second dropping; agent coated about 5 g/m^2. How it is done:
(§1) A commercially available sanitary napkin was prepared. The sanitary napkin was formed from a top sheet, formed of a hydrophilic agent-treated air-through nonwoven fabric (composite fiber composed of polyester and polyethylene terephthalate, basis weight: 35 g/m^2), a second sheet, formed of an air-through nonwoven fabric (composite fiber composed of polyester and polyethylene terephthalate, basis weight: 30 g/m^2), an absorbent body comprising pulp (basis weight: 150-450 g/m^2, increased at the center section), an acrylic super-absorbent polymer (basis weight: 15 g/m^2) and tissue as a core wrap, a water-repellent agent-treated side sheet, and a back sheet composed of a polyethylene film.
(§2) The skin contact surface of the top sheet of the sanitary napkin was coated with the aforementioned blood modifying agent. Each blood modifying agent was used directly, when the blood modifying agent was liquid at room temperature, or when the blood modifying agent was solid at room temperature it was heated to its […], and a control seam HMA gun was used for atomization of the blood modifying agent and coating onto the entire skin contact surface of the top sheet to a basis weight of about 5 g/m^2.
(§3) (obtained by adding appropriate amount of ethylenediaminetetraacetic acid (hereunder, “EDTA”) to horse blood to prevent coagulation) was dropped through the hole using a pipette (once), and after 1 minute, 3 g of horse EDTA blood at 37±1° C. was again added dropwise through the acrylic board hole with a pipette (twice).
In addition to the rewetting rate evaluation, the “absorbent body migration rate” was also measured as the time until migration of blood from the top sheet to the absorbent body after the second dropping of blood. The absorbent body migration rate is the time from introducing the blood onto the top sheet, until the redness of the blood […] on the surface and in the interior of the top sheet.

Data set [2] is described as follows: Water solubility, visual evaluation after 24 hours. The source says:
As used herein, the term “solubility” in regard to water solubility includes cases where the sample completely dissolves in deionized water to form a homogeneous mixture, and cases where the sample is completely emulsified. As used herein, “completely” means that no mass of the sample remains in the deionized water.

A short description of data set [3]: Rewetting rate of sanitary napkin with blood modifying agent-coated top sheet. Conditions: horse EDTA blood 3 g twice at 37±1° C.; agent coated about 5 g/m^2 on top sheet. As to the method:
as §1, §2, §3

For data set [4] the following is noted: at 20° C.; cited from earlier work.

Read-outs that look alike come from different tables or passages of the source. Where only a bound is given, the exact number is not on record here.

Regarding `CCCCC(CC)C(=O)OCC(C)(C)COC(=O)C(CC)CCCC` (stereo not drawn) [UNISTAR H-208BRS, Neopentylglycol di-2-ethylhexanoate], the “Absorber migration rate” value in data set [1] amounted to 5 s.

With `CCCCCCCCOC(=O)CCCCC(=O)OCCCCCCCC` [Dioctyl adipate], the “Absorber migration rate” value in data set [1] is 6 s.

On to `CCCCCCCCCCCC(=O)OCC(O)CO` (stereo not drawn) [Monomuls 90-L2 lauric acid monoglyceride, lauric acid monoglyceride], for which the “Absorber migration rate” value in data set [1] came out at 7 s.

As for `CCCCOC(=O)CC(CC(=O)OCCCC)(OC(C)=O)C(=O)OCCCC` [Tributyl O-acetylcitrate], the “Water solubility” value in data set [2] (in 100 g of water at 25° C., 24 hours) is recorded as less than 0.05 g. In addition, the “Rewetting rate (%)” value in data set [3] is given as 6.2%. In addition, the “Absorber migration rate” value in data set [1] turned out to be 8 s.

As to `CCCCCCCC(=O)OCC(COC(=O)CCCCCCC)OC(=O)CCCCCCC` [PANACET 800], the “Absorber migration rate” value in data set [1] came to 3 s.

In the case of `CCCCC(=O)CCCC` [5-nonanone], in data set [4], the Vapor pressure entry was “about 230 Pa”.

Turning to `CCCCCCCCCCCCOC(=O)CCCCCCCCCCC` [ELECTOL WE20, Ester of dodecanoic acid (C12) and dodecyl alcohol (C12)], the “Absorber migration rate” value in data set [1] came out at 5 s.

Consider `CCCCC(CC)C(=O)OCC(COC(=O)C(CC)CCCC)OC(=O)C(CC)CCCC` (stereo not drawn) [PANACET 800B], for which the “Water solubility” value in data set [2] is recorded as less than 0.05 g. Besides, the “Rewetting rate (%)” value in data set [3] is reported as 2.0%. In addition, the “Absorber migration rate” value in data set [1] is 3 s.

For `CC(C)CCCCCCCCCCCCCCCOC(=O)CC(O)C(=O)OCCCCCCCCCCCCCCCC(C)C` (stereo not drawn) [Diisostearyl malate], the “Water solubility (g)” value in data set [2] was 20< g. Further, the “Rewetting rate (%)” value in data set [3] is recorded as 5.5%. In addition, the “Absorber migration rate” value in data set [1] was determined as 8 s.

For Isopropyl citrate, the “Absorber migration rate” value in data set [1] turned out to be 5 s.

As to `CCCCCCCCCCCCCC(=O)OCCCCCCCCCCCC` [ELECTOL WE40, Ester of tetradecanoic acid (C14) and dodecyl alcohol (C12)], in data set [1], the “Absorber migration rate” value turned out to be 4 s.

On to Caprylic acid diglyceride, for which the “Absorber migration rate” value in data set [1] was 9 s.

The values are drawn from patent US9339423B2, “Absorbent article” (UNICHARM CORPORATION, priority 2012, dated 2016).
